This is an account of results in US4007184A, “Substituted alkyl esters of quinoxaline-di-N-oxide-2-carboxylic acid” (Pfizer Inc., priority 1975, dated 1977).

In brackets after ≈: the same amount, converted by molar mass. Where a name gives a salt, the structure may show the parent alone.

In test [1] the test system is Escherechia coli. The test is described as follows: in vivo antibacterial activity against acute infections in mice, oral. Particulars: for responders at 200 mg/kg / responders at 50 mg/kg: Escherichia coli, in Mus musculus, po, 96 h; for responders at 200 mg/kg: read-out: percent animals which survived, E. coli, *200 mg./kg., mice, oral, 200 mg./kg. (footnote *); for responders at 50 mg/kg: read-out: percent animals which survived, E. coli, **50 mg./kg., mice, oral, 50 mg./kg.; for percent animals which survived, E. coli 100 / percent animals which survived, E. coli 25: mice, oral; for percent animals which survived, E. coli 100: 100 mg./kg.; for percent animals which survived, E. coli 25: 25 mg./kg.
Procedure: (§1) The in vivo efficacy of the compounds of the instant invention is determined by the antibacterial activity against acute infections in mice. The acute experimental infections are produced by the intraperitoneal inoculation of standardized culture suspended in either 5% hog gastric mucin or broth.
(§2) Stock cultures of test organisms are normally maintained on slants or in liquid medium. When not routinely used they are maintained at refrigerator temperature or in a lyophilized state. When it becomes to use a culture in animal protection tests the culture is suspended in a volume of saline or broth, and the density of the suspension is measured by a photo-electric colorimeter. From this stock, ten-fold dilutions are prepared. Each dilution is inoculated into a series of mice in order to determine the LD100, the LD100 being the lowest concentration of organisms required to produce 100 percent deaths. […] This means that we are using about 10 LD100 or 10 times the minimum dose required to kill mice. Such a test would also include the use of control animals which receive an inoculum of 10^^-4, 10^^-5 and possibly 10^^-6. These dilutions are included as a check on possible variation in virulence which can occur. Having previously determined, through the virulence titration, that 10^^-4 was the maximum dilution that will kill we naturally expect these animals to die, usually within 24 hours.
(§3) Each organism has its own standardized inoculum level. Some, such as Staphylococcus, may be used at 10^^-1, while others like Streptococcus require weekly animal passage in order to maintain virulence.
(§4) When evaluating an antibiotic for its effectiveness after a single dose, the dose is usually administered 0.5 hour after inoculating the mice with the lethal concentration of organisms. In this type of treatment schedule surviving mice are usually held for 4 days after the treatment and the percent alive is calculated.

In test [2] the test system is Salmonella cholerasuis var. kunzendorf. Description: protection against systemic challenge infection in swine. Particulars: intramuscular, day 10, placebo 83. It is filed as in vivo. Here is the method: Young, 6-8 week old pigs are conditioned for 14 days in isolation rooms and maintained during the entire study on a basal ration consisting of ground yellow corn (78.4%), soybean meal (15%), alfalfa meal (2%), meat bone scraps (2.5%), limestone (0.4%), dicalcium phosphate (0.65%), iodized salt (0.5%), Vitamin pre-mix PPM-5 (0.5%), quadruple delamix (0.05%) and zinc carbonate (7.8 g./100 lbs. mix). All the pigs, which are divided into groups of six, are inoculated on day 0 with 4 ml. (approximately 2.0 × 10^8 organisms) of the stock inoculating suspension. Treatment with the quinoxaline-di-N-oxides of the present invention is carried out on day 0 and day 1 by intramuscular injection at 12 hour intervals at doses of 2.5 and 5 mg./kg. On day 10 the percent mortality in each group is calculated.

For another test, the system named is Staphylococcus aureus. The test is described as follows: in vitro activity (MIC), two-fold serial dilution technique. It is filed as cell-based. Particulars: 37° C., approximately 24 hours, method gives concentrations as mcg. of compound per ml., read-out: MIC (Minimal Inhibitory Concentration) S. aureus.
Test [3] deals with Escherechia coli. The description is as above. It is filed as cell-based. Particulars: Escherichia coli, 37° C., approximately 24 hours, method gives concentrations as mcg. of compound per ml., read-out: MIC (Minimal Inhibitory Concentration) E. coli.
The next test has as its system Streptococcus pyogenes. The test is described as follows: in vivo antibacterial activity against acute infections in mice, oral. Particulars: for percent animals which survived, S. pyogenes 50: 50 mg./kg.; for percent animals which survived, S. pyogenes 200: 200 mg./kg.
Test [4] in a line: growth promotion in swine. It is filed as in vivo. Conditions: 50 g./ton of feed, 28 days; for Weight Gain Index: control = 100. Here is the method: In practice, growth promotion is determined in swine, for instance, by the method wherein young pigs from 5-6 weeks of age and averaging 21.5 lbs. initial body weight are maintained on an ad libitum consumption of water and feed formulation consisting of ground yellow corn (58.1%), soybean meal (19.6%), alfalfa meal (2.0%), dried skim milk (5.0%), dried whey (10.0%), stabilized animal fat (2.5%), limestone (0.6%), dicalcium phosphate (1.1%), iodized salt (0.5%), vitamin premix PPM-5 (0.5%), quadruple delamix (0.05%), and zinc carbonate (156 g./2000 lbs. mix). The pigs are divided into groups of 32 pigs each and are held for a pre-experimental period of 3 days prior to starting the experiment. The quinoxaline-di-N-oxides of the present invention are added to the feed at a ratio of 50 g. of compound per ton of feed. After 28 days the efficacy of said added compounds on growth promotion is measured by a comparison of the growth in terms of weight gain of the treated animals with the untreated control group, which is arbitrarily assigned a weight gain Index of 100. For example, if a compound effects a growth 23% greater than the control group (with an Index of 100) it would be assigned a value of 123, etc.
Employing the previously described procedure for determining growth promotion in animals, the following quinoxaline-di-N-oxides were tested at 50 g./ton of feed in swine for a period of 28 days and provided the following results: […]

Procedure for Streptococcus pyogenes: as §1, §2, §3, §4

For the compound `Cc1c(C(=O)OCCOC(=O)CCl)[n+]([O-])c2ccccc2[n+]1[O-]`, in the test with Escherechia coli [1], the responders at 200 mg/kg was 100% and the responders at 50 mg/kg amounted to 100%.
For `Cc1c(C(=O)OCCOC(=O)C[N+](C)(C)C)[n+]([O-])c2ccccc2[n+]1[O-]`, in the test on Escherechia coli [1], the responders at 200 mg/kg was 90% and the responders at 50 mg/kg was determined as 40%.
Take `CCCCCCCCCC(=O)OCCOC(=O)c1c(C)[n+]([O-])c2ccccc2[n+]1[O-]`: in the test on Escherechia coli [1], the responders at 200 mg/kg worked out at 100% and the responders at 50 mg/kg worked out at 70%.
Regarding `CCOC(=O)OCCOC(=O)c1c(C)[n+]([O-])c2ccccc2[n+]1[O-]`, the “percent animals which survived, E. coli 100” value in the test on Escherechia coli [1] came to 30%.
Turning to `Cc1c(C(=O)OCCOC(=O)OCC(C)C)[n+]([O-])c2ccccc2[n+]1[O-]`, the responders at 200 mg/kg in the test with Escherechia coli [1] was 90%.
As for `CCC(=O)OCCOC(=O)c1c(C)[n+]([O-])c2ccccc2[n+]1[O-]`, in the test on Escherechia coli [1], the responders at 200 mg/kg amounted to 90% and the responders at 50 mg/kg is 80%.
Turning to `CCCC(=O)OCCOC(=O)c1c(C)[n+]([O-])c2ccccc2[n+]1[O-]`, in the test with Escherechia coli [1], the responders at 200 mg/kg is 90% and the responders at 50 mg/kg came out at 80%.
The matching figures for `CCCCC(=O)OCCOC(=O)c1c(C)[n+]([O-])c2ccccc2[n+]1[O-]`: 100% and 60%.
With `CCCCCC(=O)OCCOC(=O)c1c(C)[n+]([O-])c2ccccc2[n+]1[O-]`, in the test on Escherechia coli [1], the responders at 200 mg/kg came out at 90% and the responders at 50 mg/kg was found to be 0%.
The matching figures for `CCCCCCC(=O)OCCOC(=O)c1c(C)[n+]([O-])c2ccccc2[n+]1[O-]`: 100% and 10%.
Taken in the same sequence, the figures for `CCCCCCCC(=O)OCCOC(=O)c1c(C)[n+]([O-])c2ccccc2[n+]1[O-]` were 100% and 50%.
Taken in the same sequence, the figures for `Cc1c(C(=O)OCCOC(=O)CCCC(=O)O)[n+]([O-])c2ccccc2[n+]1[O-]` were 90% and 50%.
Regarding `CC(=O)OCCOC(=O)c1c(C)[n+]([O-])c2ccccc2[n+]1[O-]` [3-Methyl-2-quinoxalinecarboxylic acid, 2-(acetyloxy)ethyl ester, 1,4-dioxide], the “% Mortality” value in test [2] (2.5 mg./kg. × 4 at 12 hour intervals) was 67%; in test [2] (5.0 mg./kg. × 4 at 12 hour intervals), 17%.
Take `CC1(C)S[C@@H]2[C@H](NC(=O)Cc3ccccc3)C(=O)N2[C@H]1C(=O)O` [Benzylpenicillin (K Salt), Benzylpenicillin, reference compound]: the MIC in the test on Staphylococcus aureus was 0.156 µg/mL; in the test with Escherechia coli [3], above 100 µg/mL.
Taken in the same sequence, the figures for `CCN(CC)CCOC(=O)c1c(C)[n+]([O-])c2ccccc2[n+]1[O-].Cl` [H (CH2)2 N(C2 H5)2.HCl, 3-Methyl-2-quinoxalinecarboxylic acid, 2-(diethylamino)ethyl ester, 1,4-dioxide hydrochloride] were 100 µg/mL and 12.5 µg/mL.
`Cc1c(C(=O)OCCN(C)C)[n+]([O-])c2ccccc2[n+]1[O-].Cl` [H (CH2)2 N(CH3)2.HCl, 3-Methyl-2-quinoxalinecarboxylic acid, 2-(dimethylamino)ethyl ester, 1,4-dioxide hydrochloride]: in the test on Streptococcus pyogenes, the “percent animals which survived, S. pyogenes 50” value is recorded as 20% and the “percent animals which survived, S. pyogenes 200” value was 70%. For the same compound, in the test on Staphylococcus aureus, the MIC is 100 µg/mL. Further, the MIC with Escherechia coli [3] came out at 6.25 µg/mL. Also, in the test on Escherechia coli [1], the “percent animals which survived, E. coli 25” value stood at 40% and the “percent animals which survived, E. coli 100” value is listed as 100%.
In the case of `CCN(C)CCOC(=O)c1c(C)[n+]([O-])c2ccccc2[n+]1[O-].Cl` [H (CH2)2 N(CH3)C2 H5.HCl, 3-Methyl-2-quinoxalinecarboxylic acid, 2-(methylethylamino)-ethyl ester, 1,4-dioxide hydrochloride], in the test on Streptococcus pyogenes, the “percent animals which survived, S. pyogenes 50” value is 60% and the “percent animals which survived, S. pyogenes 200” value is reported as 100%. Besides, in the test on Staphylococcus aureus, the MIC is 100 µg/mL. Besides, the MIC with Escherechia coli [3] was determined as 12.5 µg/mL. In the test with Escherechia coli [1], the “percent animals which survived, E. coli 25” value turned out to be 0% and the “percent animals which survived, E. coli 100” value was 80%.
Consider `Cc1c(C(=O)OCCN)[n+]([O-])c2ccccc2[n+]1[O-]` [H (CH2)2 NH2.HCl, 3-Methyl-2-quinoxalinacarboxylic acid, 2-aminoethyl ester, 1,4-dioxide hydrochloride], for which, in the test on Streptococcus pyogenes, the “percent animals which survived, S. pyogenes 50” value worked out at 30% and the “percent animals which survived, S. pyogenes 200” value was determined as 90%. In the test on Escherechia coli [1], the “percent animals which survived, E. coli 25” value was 100%. Moreover, in test [4], the “% Growth Over Control” value came to 39% and the “Weight Gain Index” value is 139.
With `Cc1c(C(=O)OCCO)[n+]([O-])c2ccccc2[n+]1[O-]` [H (CH2)2 OH, 3-Methyl-2-quinoxalinecarboxylic acid, 2-hydroxyethyl ester, 1,4-dioxide], in the test on Streptococcus pyogenes, the “percent animals which survived, S. pyogenes 50” value amounted to 60% and the “percent animals which survived, S. pyogenes 200” value came out at 100%. Moreover, in the test on Escherechia coli [1], the “percent animals which survived, E. coli 25” value was 80% and the “percent animals which survived, E. coli 100” value is listed as 100%.
As for `CCN(CC)CCCOC(=O)c1c(C)[n+]([O-])c2ccccc2[n+]1[O-].Cl` [H (CH2)3 N(C2 H5)2.HCl, 3-Methyl-2-quinoxalinecarboxylic acid, 3-(diethylamino)propyl ester, 1,4-dioxide hydrochloride], the MIC was 200 µg/mL in the test with Staphylococcus aureus and 12.5 µg/mL in the test with Escherechia coli [3].
On to `Cc1c(C(=O)OCCCN(C)C)[n+]([O-])c2ccccc2[n+]1[O-].Cl` [H (CH2)3 N(CH3)2.HCl, 3-Methyl-2-quinoxalinecarboxylic acid, 3-(dimethylamino)propyl ester, 1,4-dioxide hydrochloride], for which, in the test with Streptococcus pyogenes, the “percent animals which survived, S. pyogenes 50” value is recorded as 20% and the “percent animals which survived, S. pyogenes 200” value stood at 100%. Further, in the test with Escherechia coli [1], the “percent animals which survived, E. coli 25” value was determined as 40% and the “percent animals which survived, E. coli 100” value came out at 80%.
The matching figures for `CCN(CC)CC(C)OC(=O)c1c(C)[n+]([O-])c2ccccc2[n+]1[O-]` (centres unmarked) [H CH(CH3)CH2 N(C2 H5)2.HCl]: 20%, 80%, 0% and 60%.
`Cc1c(C(=O)OC(C)CN(C)C)[n+]([O-])c2ccccc2[n+]1[O-].Cl` (centres unmarked) [H CH(CH3)CH2 N(CH3)2.HCl, 3-Methyl-2-quinoxalinecarboxylic acid, 1-methyl-2-(dimethyl-amino)ethyl ester, 1,4-dioxide hydrochloride]: the MIC worked out at 200 µg/mL in the test on Staphylococcus aureus and 100 µg/mL in the test on Escherechia coli [3].
The matching figures for `CC(=O)OCCOC(=O)c1c(C)[n+]([O-])c2ccccc2[n+]1[O-]` [drawing 80]: 12.5 µg/mL (≈ 40.8 µM) and 50 µg/mL (≈ 163 µM).
The matching figures for `CCNC(=O)OCCOC(=O)c1c(C)[n+]([O-])c2ccccc2[n+]1[O-]` [drawing 82]: 25 µg/mL (≈ 74.6 µM) and above 200 µg/mL.
Taken in the same sequence, the figures for `Cc1c(C(=O)OCCOC(=O)CCC(=O)O)[n+]([O-])c2ccccc2[n+]1[O-]` [drawing 83] were 200 µg/mL (≈ 549 µM) and above 200 µg/mL.
Regarding `CC(=O)OCCOC(=O)c1c(C)[n+]([O-])c2ccccc2[n+]1[O-]` [drawing 85], in the test on Streptococcus pyogenes, the “percent animals which survived, S. pyogenes 50” value came to 80% and the “percent animals which survived, S. pyogenes 200” value was 80%. Besides, in the test with Escherechia coli [1], the “percent animals which survived, E. coli 25” value is reported as 80% and the “percent animals which survived, E. coli 100” value turned out to be 100%.
As to `CCNC(=O)OCCOC(=O)c1c(C)[n+]([O-])c2ccccc2[n+]1[O-]` [drawing 89], in the test on Escherechia coli [1], the responders at 200 mg/kg was determined as 30% and the responders at 50 mg/kg worked out at 40%.
Taken in the same sequence, the figures for `Cc1c(C(=O)OCCOC(=O)CCC(=O)O)[n+]([O-])c2ccccc2[n+]1[O-]` [drawing 100] were 100% and 80%.
In the case of `CC(=O)OCCOC(=O)c1c(C)[n+]([O-])c2ccccc2[n+]1[O-]` [drawing 103], in test [4], the “% Growth Over Control” value is 53% and the “Weight Gain Index” value stood at 153.
